PubChem BioAssay AID1918955 (Molecular Pharmacology Branch, DTP, NCI, 2023)

Test system: NCI/ADR-RES complex spheroid viability
Assay: Anticancer human tumor NCI/ADR-RES cell line growth inhibition;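 further: spheroids exposed to compounds for 7 days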;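 on viability, T/C: 100% = DMSO vehicle treated spheroids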
Details: for IC50: curve of first compound; for viability, T/C: stronger effect = lower value; active means viability on the fitted dose curve at most 10% of control; inactive means the rest
Source text: Multicellular complex tumor spheroid response to LSD1 Inhibitor Iadademstat in combination with a variety of drugs and investigational agents in selected tumor cell lines
The current study was undertaken to assess response to LSD1 inhibitors in combination with standard-of-care drugs and investigational agents in solid tumor complex spheroid models as well as in the K-562 leukemia. Complex spheroids include a stromal component modeled by human endothelial cells (HUVEC) and fibroblasts modeled by human mesenchymal stem cells (MSCs). The concentration ranges selected for each drug and investigational agent were based upon clinically achievable concentrations if the clinical Cmax of the agent was known.
Compounds. The drugs and investigational agents used in this study are listed on Table 1. All of the agents used, including staurosporine (NSC755774) and gemcitabine (NSC613327), were obtained from the Developmental Therapeutics Program, NCI. FDA-approved anticancer drugs are available from the NCI at http://dtp.nci.nih.gov/branches/dscb/oncology_drugset_explanation.html. Drugs and investigational agents were >95% pure by proton nuclear magnetic resonance (NMR) and liquid chromatography/mass spectrometry (LC/MS). Stock solutions were prepared at 400x in DMSO, stored at -70 degrees C, and diluted in fresh medium prior to their use. The final concentration of DMSO in cell culture wells never exceeded 0.25% (v/v). The FDA-approved anticancer drug set is available from the Developmental Therapeutics Program at https://dtp.cancer.gov/organization/dscb/obtaining/available_plates.htm. All drugs and investigational agents were tested over a range starting from a high concentration at or near the clinical Cmax and decreasing in half-log increments. If the clinical Cmax for an agent had not been determined, the highest concentration tested was 10 microM.
Cell Lines. The patient-derived cancer cell (PDC) lines: 292921-168-R-J2-PDC, K24384-001-R-PDC, and 521955-158-R2-J5-PDC pancreatic carcinomas, 556581-035-R-J1 ovarian carcinoma, 324938-238-R-J1-PDC, 855422-203-R-J1-PDC and 883617-216-R-J1-PDC urothelial bladder carcinomas, 743489-274-T-PDC renal cell carcinoma, 138582-R-J1 Merkel cell tumor, K60290-347-R-J1 and K57222-313-R-J1-PDC glioblastomas, 653999-131-R-J2-PDC, LG0703-F948-PDC, and 349418-098-R-PDC non-small cell lung carcinomas, 885512-296-R-J2-PDC, 171881-019-R-J1-PDC breast carcinomas and 186277-243-T-J2-PDC and 233499-124-R-J2-PDC colon carcinomas were obtained from the NCI Patient-Derived Models Repository (PDMR, https://pdmr.cancer.gov). The established cell lines NCI/ADR-RES (RRID:CVCL_14520 and OVCAR-5 (RRID:CVCL_1628) ovarian carcinomas, 786-O (RRID:CVCL_1051) and A498 (RRID:CVCL_A498) renal cell carcinoma, NCI-H211 (ATCC, cat. CRL-5824; RRID:CVCL_1529), NCI-H196 (ATCC, cat. CRL-5823, RRID:CVCL_1509), SW 1271 (ATCC, cat. CRL-2177, RRID:CVCL_1716) and NCI-H1876 (ATCC, cat. CRL-5902, RRID:CVCL_1503) small cell lung carcinomas, MDA-MB-231 (RRID:CVCL_0062) and MDA-MB-468 (RRID:CVCL_0419)breast carcinomas (10-12). Pooled donor human umbilical vein endothelial cells (HUVEC, Lonza, cat. CC-2519) and human mesenchymal stem cells (hMSC, Lonza, cat. PT-2501) were purchased from Lonza (Walkersville, MD).
Cell Culture. All cells were maintained in an incubator at 37 degrees C and 5% CO2 with 95% humidity. The PDC lines were cultured according to standard operating procedures established by the NCI PDMR (https://pdmr.cancer.gov). Briefly all PDCs were thawed and cultured in Matrigel-coated flasks prepared with a working solution of 1X Ham's F-12 nutrient mix, without supplementation (Invitrogen, Waltham, MA, cat. 11765054), 100 U/mL penicillin-streptomycin (Invitrogen, cat. 15140122), and 2.5% Matrigel (Corning Inc., Corning, NY, cat. 354248) for the first three passages. […]

CC[C@@]1(O)C(=O)OCc2c1cc1n(c2=O)Cc2cc3c(CN(C)C)c(O)ccc3nc2-1 + NC1CC1c1ccc(-c2cccc(O)c2)cc1
13.2 nM: IC50 (second compound 10 µM)
8.38 nM: IC50 (second compound 0.1 µM)
8.87 nM: IC50 (second compound 0.316 µM)
13.3 nM: IC50 (second compound 3.16 µM)
inactive: viability, T/C (second compound 0.1 µM, first compound 0.000316 µM) 110% | viability, T/C (second compound 0.1 µM, first compound 0.001 µM) 101% | viability, T/C (second compound 0.1 µM, first compound 0.00316 µM) 84.9% | viability, T/C (second compound 0.1 µM, first compound 0.01 µM) 43.3% | viability, T/C (second compound 0.1 µM, first compound 0.0316 µM) 13.4% | viability, T/C (second compound 0.316 µM, first compound 0.000316 µM) 111% | viability, T/C (second compound 0.316 µM, first compound 0.001 µM) 103% | viability, T/C (second compound 0.316 µM, first compound 0.00316 µM) 86.2% | viability, T/C (second compound 0.316 µM, first compound 0.01 µM) 45.2% | viability, T/C (second compound 0.316 µM, first compound 0.0316 µM) 14.9% | viability, T/C (second compound 1 µM, first compound 0.000316 µM) 101% | viability, T/C (second compound 1 µM, first compound 0.001 µM) 98.9% | viability, T/C (second compound 1 µM, first compound 0.00316 µM) 83.5% | viability, T/C (second compound 1 µM, first compound 0.01 µM) 52.2% | viability, T/C (second compound 1 µM, first compound 0.0316 µM) 16.3% | viability, T/C (second compound 3.16 µM, first compound 0.000316 µM) 97% | viability, T/C (second compound 3.16 µM, first compound 0.001 µM) 94% | viability, T/C (second compound 3.16 µM, first compound 0.00316 µM) 81.2% | viability, T/C (second compound 3.16 µM, first compound 0.01 µM) 60.1% | viability, T/C (second compound 3.16 µM, first compound 0.0316 µM) 23.7% | viability, T/C (second compound 10 µM, first compound 0.000316 µM) 95.1% | viability, T/C (second compound 10 µM, first compound 0.001 µM) 82.3% | viability, T/C (second compound 10 µM, first compound 0.00316 µM) 74.2% | viability, T/C (second compound 10 µM, first compound 0.01 µM) 57.1% | viability, T/C (second compound 10 µM, first compound 0.0316 µM) 31.4%
10.5 nM: IC50 (second compound 1 µM)
active: viability, T/C (second compound 0.1 µM, first compound 0.1 µM) 2.49% | viability, T/C (second compound 0.316 µM, first compound 0.1 µM) 2.48% | viability, T/C (second compound 1 µM, first compound 0.1 µM) 2.84% | viability, T/C (second compound 3.16 µM, first compound 0.1 µM) 4.48% | viability, T/C (second compound 10 µM, first compound 0.1 µM) 9.59%
